Source: patent US11459330B2, “Substituted bicyclic heterocyclic compounds as PRMT5 inhibitors” (LUPIN LIMITED, priority 2017, dated 2022)

How the values were obtained:
PANC-1 cells = assay: Anti-cancer assay (Panc-1), cell viability CellTiterGlo; type: cell-based; details: Homo sapiens, PANC-1, 168 h, 7 days
Experimental: Anticancer Activity Assay
Z-138 cells were seeded at a density of 2000-3000 cells per well in culture media (IMDM+10% FBS). PANC-1 (ATCC, CRL-1469™) and MIA PaCa-2 (ATCC, CRL-1420™) cells were seeded at a density of 200-300 cells per well in culture media (DMEM+10% FBS). Cells were seeded in opaque, flat bottomed tissue culture grade 96-well plates and Z-138 cells (suspension) were seeded and treated on the same day with various concentrations of test compounds. PANC-1 and MIA PaCa-2 cells, being adherent, were kept for overnight settlement at standard cell culture conditions (37° C., 5% CO2). On the following day, cells were treated with various concentrations of test compounds. Cells were treated with test compounds for a period of 96 h, 7 days and 10 days, for Z-138 cells, PANC-1 cells and MIA PaCa-2 cells, respectively. Cell viability was assessed using CellTiterGlo™ (Promega, USA) as per manufacturer's instructions. Relative Light Units (RLU) were read in Synergy™ 2 reader (Biotek, USA). The assay measures cellular ATP as an indicator of cell viability. RLU is proportional to the number of viable cells in the respective well.
% inhibition of cell viability was calculated relative to the vehicle control samples containing media with 0.1% DMSO alone as per the formula below. (Avg. of Untreated Control−Avg. of Test)×100 Avg. of Untreated Control
The IC50 values of individual compounds were calculated with Non Linear Regression Analysis using Graph Pad Prism (Graph Pad software, Inc, USA).
Anti-Cancer Assay (Panc-1)

PRMT5:MEP50 = PRMT5:MEP50 (Homo sapiens, UniProt O14744); assay: PRMT5 biochemical HTRF assay (Biochemical Assay Protocol 1 / 2); details: biotinylated H4R3 substrate, 1 μM SAM, protocol 1 or 2 not given, activity range 300 pM to 950 pM, read-out: IC50 (PRMT5 inhibition), activity range
Experimental: Biochemical Assay Protocol 1
(§1) Inhibitory effect of compounds on PRMT5 was assessed using HTRF detection technology in biochemical assay. Biotinylated H4R3 (residues 1-21) was used as a substrate. Compounds were pre-incubated with 15-25 ng PRMT5:MEP50 per well of a 384-well plate for 30 min at room temperature in the assay buffer containing 20 mM Bicine, pH 7.6, 25 mM NaCl, 2 mM DTT, 0.01% Chicken albumin and 0.01% Tween-20. Reaction was initiated by adding 1 μM of SAM and 50 nM biotinylated H4R3. Total assay volume was 15 μL. Reaction was continued for 120 min at room temperature. Then detection solution containing Streptavidin-Eu cryptate, anti-rabbit IgG-XL-665, Histone H4R3 Dimethyl Symmetric (H4R3me2s) Polyclonal Antibody, all prepared in HTRF detection buffer was added and further incubated for 30 min at room temperature. HTRF signal was recorded in PHERAStar microplate reader. Ratio of signal obtained at 665 nm and 620 nm was used to compute the percent inhibition of compound as follows % Inhibition=100−((Test Ratio−Negative control Ratio)/(Positive control Ratio−Negative control Ratio)*100) where Positive control=PRMT5+SAM+H4R3 Negative control=PRMT5+H4R3 Biochemical Assay Protocol 2
as §1, with “2.5” for “15-25”, “4 h” for “120 min”, “control=PRMT5+H4R3” for “control=PRMT5+H4R3 Biochemical Assay Protocol 2”

[1] = activity range, lower bound in pM, upper bound in nM

Chain of PRMT5:MEP50 (O14744 whole entry): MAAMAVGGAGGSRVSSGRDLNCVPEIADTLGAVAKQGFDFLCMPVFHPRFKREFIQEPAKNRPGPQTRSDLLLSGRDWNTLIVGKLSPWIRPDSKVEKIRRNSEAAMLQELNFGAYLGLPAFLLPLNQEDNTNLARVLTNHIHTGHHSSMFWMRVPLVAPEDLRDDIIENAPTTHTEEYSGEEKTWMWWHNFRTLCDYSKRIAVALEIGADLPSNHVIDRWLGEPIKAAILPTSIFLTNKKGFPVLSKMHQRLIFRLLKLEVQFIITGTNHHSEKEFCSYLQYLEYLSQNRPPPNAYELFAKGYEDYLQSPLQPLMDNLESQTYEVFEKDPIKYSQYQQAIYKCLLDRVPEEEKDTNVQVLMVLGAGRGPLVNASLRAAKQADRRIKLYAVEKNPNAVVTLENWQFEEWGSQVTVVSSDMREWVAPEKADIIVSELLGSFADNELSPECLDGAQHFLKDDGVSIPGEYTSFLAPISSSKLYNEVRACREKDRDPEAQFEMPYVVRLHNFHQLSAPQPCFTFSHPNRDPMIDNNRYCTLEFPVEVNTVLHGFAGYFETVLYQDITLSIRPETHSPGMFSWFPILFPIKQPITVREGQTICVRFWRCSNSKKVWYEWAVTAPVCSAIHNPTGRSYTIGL
Chain of PRMT5:MEP50 (Q9BQA1 whole entry partner): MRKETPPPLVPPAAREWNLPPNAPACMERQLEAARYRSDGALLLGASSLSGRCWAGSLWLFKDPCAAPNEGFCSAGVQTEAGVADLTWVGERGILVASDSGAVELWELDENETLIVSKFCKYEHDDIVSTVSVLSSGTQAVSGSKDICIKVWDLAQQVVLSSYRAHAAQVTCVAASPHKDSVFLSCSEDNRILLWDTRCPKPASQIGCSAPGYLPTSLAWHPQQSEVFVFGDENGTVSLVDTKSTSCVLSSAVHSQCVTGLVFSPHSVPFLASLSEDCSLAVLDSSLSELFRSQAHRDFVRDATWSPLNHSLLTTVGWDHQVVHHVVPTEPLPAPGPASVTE

Compound	IC50 (PANC-1 cells; [1]) [pM]	IC50 (PANC-1 cells; activity range 20 nM to 100 nM) [pM]	IC50 (PRMT5:MEP50) [nM]
Nc1nc2cc(CCC3=C[C@@H](n4ccc5c(N)ncnc54)[C@H](O)[C@@H]3O)cc(Cl)c2cc1Cl [Compound-29, (1S,2R,5R)-3-(2-(2-amino-3,5-dichloroquinolin-7-yl)ethyl)-5-(4-amino-7H-pyrrolo[2,3-d]pyrimidin-7-yl)cyclopent-3-ene-1,2-diol]	–	20000 to 100000	–
CC(Cc1ccc2cc(Br)c(N)nc2c1)C1=C[C@@H](n2ccc3c(N)ncnc32)[C@H](O)[C@@H]1O (single isomer, unassigned) [Compound-7a]	300 to 20000	–	0.3 to 0.95
Nc1nc2cc(CCC3=C[C@@H](n4ccc5c(N)ncnc54)[C@H](O)[C@@H]3O)ccc2cc1F [Compound-23, (1S,2R,5R)-3-(2-(2-Amino-3-fluoroquinolin-7-yl)ethyl)-5-(4-amino-7H-pyrrolo[2,3-d]pyrimidin-7-yl)cyclopent-3-ene-1,2-diol]	–	–	0.3 to 0.95
Cc1ncnc2c1ccn2[C@@H]1C=C(C(C)Cc2cc(F)c3cc(Cl)c(N)nc3c2)[C@@H](O)[C@H]1O (single isomer, unassigned) [Compound-35a]	300 to 20000	–	–
CC(Cc1ccc2cc(Cl)c(N)nc2c1)C1=C[C@@H](n2ccc3c(N)ncnc32)[C@H](O)[C@@H]1O (single isomer, unassigned) [Compound-34b]	300 to 20000	–	0.3 to 0.95
Nc1nc2cc(OCC3=C[C@@H](n4ccc5c(N)ncnc54)[C@H](O)[C@@H]3O)cc(F)c2cc1Cl [Compound-18, (1S,2R,5R)-3-(((2-amino-3-chloro-5-fluoroquinolin-7-yl)oxy)methyl)-5-(4-amino-7H-pyrrolo[2,3-d]pyrimidin-7-yl)cyclopent-3-ene-1,2-diol]	300 to 20000	–	0.3 to 0.95
Nc1nc2cc(CCC3=C[C@@H](n4ccc5c(N)ncnc54)[C@H](O)[C@@H]3O)ccc2cc1Cl [Compound-2, (1S,2R,5R)-3-(2-(2-amino-3-chloroquinolin-7-yl)ethyl)-5-(4-amino-7H-pyrrolo[2,3-d]pyrimidin-7-yl)cyclopent-3-ene-1,2-diol]	300 to 20000	–	0.3 to 0.95
Cc1ncnc2c1ccn2[C@@H]1C=C(CCc2ccc3cc(Cl)c(N)nc3c2)[C@@H](O)[C@H]1O [Compound-21, (1S,2R,5R)-3-(2-(2-amino-3-chloroquinolin-7-yl)ethyl)-5-(4-methyl-7H-pyrrolo[2,3-d]pyrimidin-7-yl)cyclopent-3-ene-1,2-diol]	300 to 20000	–	0.3 to 0.95
Nc1ncc2ccn([C@@H]3C=C(CCc4ccc5cc(Cl)c(N)nc5c4)[C@@H](O)[C@H]3O)c2n1 [Compound-30, (1S,2R,5R)-3-(2-(2-amino-3-chloroquinolin-7-yl)ethyl)-5-(2-amino-7H-pyrrolo[2,3-d]pyrimidin-7-yl)cyclopent-3-ene-1,2-diol]	300 to 20000	–	–
Cc1ncnc2c1ccn2[C@@H]1C=C(C(C)Cc2cc(F)c3cc(Cl)c(N)nc3c2)[C@@](C)(O)[C@H]1O (single isomer, unassigned) [Compound-36a]	–	–	0.3 to 0.95
CC(Cc1ccc2cc(Br)c(N)nc2c1)[C@@]12C[C@@H]1[C@@H](n1ccc3c(N)ncnc31)[C@H](O)[C@@H]2O (stereo partly drawn) [76b, (1S,2R,3S,4R,5S)-1-((S)-1-(2-Amino-3-bromoquinolin-7-yl)propan-2-yl)-4-(4-amino-7H-pyrrolo[2,3-d]pyrimidin-7-yl)bicyclo[3.1.0]hexane-2,3-diol]	–	20000 to 100000	–
Nc1nc2cc(CCC3=C[C@@H](n4ccc5cnccc54)[C@H](O)[C@@H]3O)cc(F)c2cc1Cl [Compound-15, (1S,2R,5R)-3-(2-(2-Amino-3-chloro-5-fluoroquinolin-7-yl)ethyl)-5-(1H-pyrrolo[3,2-c]pyridin-1-yl)cyclopent-3-ene-1,2-diol]	–	–	0.3 to 0.95

Continued, values first:

IC50 (PANC-1 cells; [1]) [pM]	IC50 (PANC-1 cells; activity range 20 nM to 100 nM) [pM]	IC50 (PRMT5:MEP50) [nM]	Compound
300 to 20000	–	–	Nc1ccc2cc(F)c(CCC3=C[C@@H](n4ccc5c(N)ncnc54)[C@H](O)[C@@H]3O)cc2n1 [Compound-46, (1S,2R,5R)-3-(2-(2-Amino-6-fluoroquinolin-7-yl)ethyl)-5-(4-amino-7H-pyrrolo[2,3-d]pyrimidin-7-yl)cyclopent-3-ene-1,2-diol]
300 to 20000	–	0.3 to 0.95	Nc1nc2cc(CC[C@@]34C[C@@H]3[C@@H](n3ccc5c(N)ncnc53)[C@H](O)[C@@H]4O)ccc2cc1Cl [Compound-61, (1R,2R,3S,4R,5S)-1-(2-(2-Amino-3-chloroquinolin-7-yl)ethyl)-4-(4-amino-7H-pyrrolo[2,3-d]pyrimidin-7-yl)bicyclo[3.1.0]hexane-2,3-diol]
–	–	0.3 to 0.95	Cc1ncnc2c1ccn2[C@@H]1C=C(CCc2cc(F)c3cc(Br)c(N)nc3c2)[C@@H](O)[C@H]1O [Compound-44, (1S,2R,5R)-3-(2-(2-Amino-3-bromo-5-fluoroquinolin-7-yl)ethyl)-5-(4-methyl-7H-pyrrolo[2,3-d]pyrimidin-7-yl)cyclopent-3-ene-1,2-diol]
300 to 20000	–	0.3 to 0.95	Nc1ccc2c(F)cc(CCC3=C[C@@H](n4ccc5c(N)ncnc54)[C@H](O)[C@@H]3O)cc2n1 [Compound-47, (1S,2R,5R)-3-(2-(2-amino-5-fluoroquinolin-7-yl)ethyl)-5-(4-amino-7H-pyrrolo[2,3-d]pyrimidin-7-yl)cyclopent-3-ene-1,2-diol]
300 to 20000	–	0.3 to 0.95	C[C@@]1(O)C(CCc2cc(F)c3cc(Cl)c(N)nc3c2)=C[C@@H](n2ccc3c(N)ncnc32)[C@@H]1O [Compound-37, (1S,2R,5R)-3-(2-(2-amino-3-chloro-5-fluoroquinolin-7-yl)ethyl)-5-(4-amino-7H-pyrrolo[2,3-d]pyrimidin-7-yl)-2-methylcyclopent-3-ene-1,2-diol]
300 to 20000	–	–	CC[C@@]1(O)C(CCc2cc(F)c3cc(Cl)c(N)nc3c2)=C[C@@H](n2ccc3c(N)ncnc32)[C@@H]1O [Compound-40, (1S,2R,5R)-3-(2-(2-amino-3-chloro-5-fluoroquinolin-7-yl)ethyl)-5-(4-amino-7H-pyrrolo[2,3-d]pyrimidin-7-yl)-2-ethylcyclopent-3-ene-1,2-diol]
300 to 20000	–	–	CCc1ncnc2c1ccn2[C@@H]1C=C(CCc2cc(F)c3cc(Cl)c(N)nc3c2)[C@@H](O)[C@H]1O [Compound-41, (1S,2R,5R)-3-(2-(2-amino-3-chloro-5-fluoroquinolin-7-yl)ethyl)-5-(4-ethyl-7H-pyrrolo[2,3-d]pyrimidin-7-yl)cyclopent-3-ene-1,2-diol]
300 to 20000	–	0.3 to 0.95	CC(Cc1cc(F)c2cc(Cl)c(N)nc2c1)C1=C[C@@H](n2ccc3c(N)ncnc32)[C@H](O)[C@]1(C)O (stereo partly drawn) [Compound-38, (1S,2R,5R)-3-(1-(2-amino-3-chloro-5-fluoroquinolin-7-yl)propan-2-yl)-5-(4-amino-7H-pyrrolo[2,3-d]pyrimidin-7-yl)-2-methylcyclopent-3-ene-1,2-diol]
–	–	0.3 to 0.95	CC(Cc1cc(F)c2cc(Br)c(N)nc2c1)C1=C[C@@H](n2ccc3c(N)ncnc32)[C@H](O)[C@@H]1O (single isomer, unassigned) [Compound-45a]
300 to 20000	–	–	Cc1cc2ccc(CC[C@@]34C[C@@H]3[C@@H](n3ccc5c(N)ncnc53)[C@H](O)[C@@H]4O)cc2nc1N [Compound-54, (1R,2R,3S,4R,5S)-1-(2-(2-Amino-3-methylquinolin-7-yl)ethyl)-4-(4-amino-7H-pyrrolo[2,3-d]pyrimidin-7-yl) bicyclo[3.1.0]hexane-2,3-diol]
